This note sets out measurements from paper PMC8909805, “Anticancer Activity of (S)-5-Chloro-3-((3,5-dimethylphenyl)sulfonyl)-N-(1-oxo-1-((pyridin-4-ylmethyl)amino)propan-2-yl)-1H-indole-2-carboxamide (RS4690), a New Dishevelled 1 Inhibitor” (Cancers, 2022).

The structures appear in SMILES notation. “Also recorded” adds a separate entry of the source.

For one assay, the system named is SW620 cells. The experiment in a line: Cell growth inhibition, XTT assay, SW620. The class given is cell-based. The settings on record: Homo sapiens, SW-620; incubation time 72 h. As for the experimental part: (§1) Cell viability was evaluated by XTT [35] (SW480 and SW620 cells) or MTT [36] (HEK293 and HCT116 cells) colorimetric assays. Briefly, cells (range 10–30 × 10^3 cells/well) were seeded in 96-well microculture plates and then exposed to increasing concentrations of different compounds (range 0–300 µM) for 48 or 72 h. At the end of the treatment, media were removed and incubated at 37 °C in the dark for 4 h in phosphate-buffered saline (PBS) containing 0.2 mg/mL of sodium 3′-[1-[(phenylamino)-carbonyl]-3,4-tetrazolium]-bis(4-methoxy-6-nitro)benzene-sulfonic acid hydrate (XTT) (Thermo Fisher Scientific, Waltham, MA, USA) or (3-[4,5-dimethylthiazol-2-yl]-2,5 diphenyl tetrazolium bromide (MTT) (Merck, Kenilworth, NJ, USA) and phenazine methosulfate (PMS) at a final concentration of 25 µM. Absorbance at 450 nm and a reference wavelength of 650 nm was then measured using a microplate spectrophotometer (Multiskan FC Microplate Photometer, Thermo Scientific, Waltham, MA, USA). The cell growth inhibition rate was calculated utilizing the following formula: inhibition rate (%) = […], where Control OD is absorbance of negative control and Sample OD is absorbance of the test sample. The IC50 values were determined with GraphPad Prism 5 through constructed dose-response curves.
(§2) In vitro cultures of colon cancer cells often present mutations either in the APC gene or in the β-catenin gene. […] Two of these cell lines, colon cancer SW480 and SW620 cells, were used in dose-response experiments. […] We thus tested their growth inhibitory activity on the colon cancer cell line HCT116. In terms of APC and β-catenin, these represent the wt counterparts of SW480 and […]. HCT116 cells express wt APC and are heterozygous for β-catenin, harboring one wild type and one mutant (Ser45del) allele. WNT pathway activity and the survival of HCT116 cells thus depend on DVL and can be affected by FZD and DVL inhibitors. […]
(Tetrazolium dyes change colour on reduction, which living cells bring about.)

For a further assay, the system named is WNT/β-catenin pathway. In words: Inhibition of TCF/LEF (WRE-GFP reporter) activity in HEK293 cells expressing HA-FZD4. The class given is cell-based. The settings on record: Homo sapiens, HEK293, 48 h, 48 h treatment, read-out: EC50 ± SD WNT Pathway Inhibition. As to the method: Briefly, Hek293 cells were seeded on black 96-well Optiplates (PerkinElmer, Waltham, MA, USA) at a density of 5 × 10^3/well. After seeding for 16–24 h, cells were co-transfected with the cDNA coding for HA-FZD4 (0.04 µg/well) as well as with the reporter construct WRE-GFP (0.04 µg/well) using Lipofectamine. Hek293 cells were plated and treated with different dilutions of compounds 2, (S)-2 or (R)-1 for 48 h before being fixed and analyzed under a fluorescence microscope. Inhibition of WRE activity was measured by counting the percentage of GFP positive cells. Experiments were performed in triplicate and the standard deviations are indicated.
The activity of the compounds was further assayed in HEK293 cells transiently expressing both HA-FZD4 and the WNT reporter construct WRE-GFP (25). The latter presents the coding sequence of GFP under the control of an optimized WNT responsive element (WRE-wt). When WRE-GFP is transiently transfected in cells, it promotes GFP transcription and translation. The amount of GFP produced by each cell (and thus overall cell-fluorescence) depends on the intracellular levels of WNT pathway activity (Figure 5).

For a further assay, the target named is T1, DVL1 PDZ domain (Homo sapiens, UniProt O14640).
T1 sequence (O14640 251-323 limits assumed): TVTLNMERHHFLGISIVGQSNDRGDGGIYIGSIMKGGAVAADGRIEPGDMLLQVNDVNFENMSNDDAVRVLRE
The experiment in a line: Equilibrium (FRET) competition binding between DVL1 PDZ domain and dansylated TMEM88 C-terminal peptide. The settings on record: compound at 5 µM. As to the method: Equilibrium binding experiments were performed on a Fluoromax-4 single photon counting spectrofluorometer (Jobin-Yvon, NJ, USA). The buffer used was sodium phosphate 50 mM, DMSO 20% v/v, pH 7.2, and the temperature was set at 25 °C. […] Experiments were performed in the absence and in the presence of 1 µM and 5 µM constant concentration of (S)-2 or (R)-1 enantiomers. Normalized fluorescence collected at 540 nm was fitted using a hyperbolic function.

The next assay addresses T2, NHERF1 PDZ1 domain (Homo sapiens, UniProt O14745).
T2 sequence (O14745 14-94 limits assumed): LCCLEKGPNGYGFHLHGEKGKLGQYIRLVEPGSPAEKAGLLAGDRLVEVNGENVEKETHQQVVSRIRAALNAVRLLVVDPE
The experiment in a line: Inhibition of the NHERF1 PDZ1 domain. The class given is binding. The settings on record: data not shown.

Assay [1] has as its system HCT116 cells. The experiment in a line: Cell growth inhibition, MTT assay, HCT116. The class given is cell-based. The settings on record: Homo sapiens, HCT-116; incubation time 48 h; cells express wild-type APC. As for the experimental part: as §1, §2
Another assay concerns SW480 cells. The experiment in a line: Cell growth inhibition, XTT assay, SW480. The settings on record: Homo sapiens, incubation time 72 h. The class given is cell-based. As for the experimental part:
as §1, §2

Assay [2] relates to HCT116 cells. The experiment in a line: ROS quantification with DCFDA probe in HCT116 cells. The settings on record: 48 h treatment, increasing concentrations; % of DMSO control. The class given is cell-based, human. As to the method:
HCT116 cells were grown in RPMI-1640 medium (Corning) containing 2 mM L-glutamine and supplemented with 100 IU/mL penicillin/streptomycin and 10% fetal bovine serum (FBS; Sigma-Aldrich, St Louis, MO, USA). HCT116 cells were treated in 96-well-black plates for 48 h with increased concentrations of […]. Quantification of ROS production was measured using 20 μM of the fluorescent probe 2′,7′-dichlorodihydrofluorescein diacetate DCFDA (Sigma Aldrich). The relative fluorescence emission was followed at 520 nm using VICTOR plate reader (VICTOR™ Multilabel Counter, Perkin Elmer) and was normalized to total protein content using BCA test. Total ROS production was presented as percentage with respect to the control (DMSO treated cells) that was set as 100%. Statistical analysis was performed using one-way ANOVA followed by the Bonferroni post hoc comparison test. p < 0.05 was considered significant. Data are representative of three independent experiments with similar results.
Reactive oxygen species (ROS) play important roles in cell growth and differentiation, metabolism and apoptosis. […] We measured the ability of compounds (S)-1 and (R)-1 to generate ROS in HCT116 cells using the fluorescent probe 2′,7′-dichlorodihydrofluorescein diacetate DCFDA. The ROS production (%) upon 48 h treatment was determined with increasing concentrations of (S)-1 or (R)-1. […]

Consider `Cc1cc(C)cc(S(=O)(=O)c2c(C(=O)N[C@H](C)C(=O)NCc3ccncc3)[nH]c3ccc(Cl)cc23)c1` [(R)-1], for which the EC50 in the assay with SW620 cells came out at 54.8 ± 1.9 µM; in the assay with WNT/β-catenin pathway it was 19.49 ± 0.06 µM; with HCT116 cells [1] it was 28.3 ± 1.2 µM; in the assay with SW480 cells, 59.5 ± 2.1 µM. The “Effect on binding between DVL1 PDZ and TMEM88 peptide” value at DVL1 PDZ domain is listed as “abolished the binding”. Besides, the “Inhibition of NHERF1 PDZ1 domain” value on NHERF1 PDZ1 domain is given as “did not show inhibitory activity; also recorded: did not bind”.
For `Cc1cc(C)cc(S(=O)(=O)c2c(C(=O)N[C@@H](C)C(=O)NCc3ccncc3)[nH]c3ccc(Cl)cc23)c1` [(S)-1, (S)-5-Chloro-3-((3,5-dimethylphenyl)sulfonyl)-N-(1-oxo-1-((pyridin-4-ylmethyl)amino)propan-2-yl)-1H-indole-2-carboxamide], the EC50 in the assay on SW620 cells is 45.9 ± 2 µM; in the assay with HCT116 cells [1] it was 7.1 ± 0.6 µM; with SW480 cells, 55 ± 2.2 µM. In addition, the ROS production entry with HCT116 cells [2] is listed as “high level of ROS production; also recorded: superior to (R)-1 at any tested compound concentration; also recorded: higher level of ROS production”. Further, the “Effect on binding between DVL1 PDZ and TMEM88 peptide” value on DVL1 PDZ domain is reported as “abolished the binding”. Besides, on NHERF1 PDZ1 domain, the “Inhibition of NHERF1 PDZ1 domain” value is “did not show inhibitory activity; also recorded: did not bind”.
On to `Cc1cc(C)cc(S(=O)(=O)c2c(C(=O)NC(C)C(=O)NCc3ccncc3)[nH]c3ccc(Cl)cc23)c1` (stereo not shown) [Compound 1], for which the EC50 with SW620 cells stood at 38.5 ± 1.6 µM; in the assay with WNT/β-catenin pathway it was 3.46 ± 0.07 µM; with HCT116 cells [1], 15.2 ± 1.1 µM; in the assay on SW480 cells, 39.2 ± 1.58 µM.

For orientation: EC50 means the concentration giving half of the maximal effect.
